Laboratory results: patent US20210395310A1, “Cyclic Peptide” (The University of Tokyo, priority 2018, published 2021)
Positions of bridges follow the written chain, without caps; N, C: chain ends. Non-standard residues stand in square brackets, D forms with d. Residues, ends and D or L forms follow the SMILES beside them. PEG12 = NCCOCCOCCOCCOCCOCCOCCOCCOCCOCCOCCOCCOCCC(=O)O; βAla = NCCC(=O)O

Experiments:
[1] = molecular target: T1, HGF-MET interaction (Homo sapiens, UniProt P14210); assay: Competition of HiP-8 against binding between HGF or HGF fragment and MET ECD by SPR; conditions: immobilized MET external domain, varying HiP-8 concentrations
T1 construct: the full-length human HGF cDNA was cloned into pEHX1.1 plasmid; made in house; host or cells: Chinese hamster ovary (CHO) cells (HGF)
T1 sequence (P14210 32-489 isoform P14210-3): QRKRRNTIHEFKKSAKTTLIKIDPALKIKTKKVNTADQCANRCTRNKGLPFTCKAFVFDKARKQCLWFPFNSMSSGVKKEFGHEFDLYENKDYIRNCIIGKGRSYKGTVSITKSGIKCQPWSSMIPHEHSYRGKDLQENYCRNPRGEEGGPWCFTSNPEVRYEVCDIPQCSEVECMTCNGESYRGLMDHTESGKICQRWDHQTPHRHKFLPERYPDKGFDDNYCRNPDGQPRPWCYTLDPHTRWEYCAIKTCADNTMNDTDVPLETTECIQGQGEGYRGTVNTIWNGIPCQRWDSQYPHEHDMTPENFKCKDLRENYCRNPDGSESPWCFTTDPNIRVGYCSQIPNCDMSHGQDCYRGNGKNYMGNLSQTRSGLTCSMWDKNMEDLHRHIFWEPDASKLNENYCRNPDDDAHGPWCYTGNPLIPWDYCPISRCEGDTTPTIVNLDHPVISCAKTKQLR
T1 sequence (P14210 495-728): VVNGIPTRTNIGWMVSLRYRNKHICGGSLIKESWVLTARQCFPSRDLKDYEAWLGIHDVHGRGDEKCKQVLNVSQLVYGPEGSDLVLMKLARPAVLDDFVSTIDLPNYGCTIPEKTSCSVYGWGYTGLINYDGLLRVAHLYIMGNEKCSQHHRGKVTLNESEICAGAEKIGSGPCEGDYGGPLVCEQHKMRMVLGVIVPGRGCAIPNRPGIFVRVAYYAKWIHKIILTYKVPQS
Procedure: Competition of HiP-8 against the binding between HGF or HGF fragment and MET ECD was measured by surface plasmon resonance (SPR) with Biacore 3000 (product of GE Flealthcare). His-labeled MET-ECD was supported on the surface of a nitrilotriacetic acid (NTA)-coated chip at 1000 RU. HiP-8 was mixed in advance at gradually increasing concentrations with 5 nM HGF, 30 nM NK4, or 30 nM SP fragment, and the resulting mixture was tested in 10 mM TBS (pH 7.4), 300 mM NaCl, and 0.05% Tween 20 (v/v) at a flow rate of 30 μl/min.

[2] = tested on: B16-F10 melanoma; assay: Cell migration test; type: cell-based; conditions: transwell, 16 hours
Procedure: B16F10 cells (1×10^5 cells/insert) cultured in 200 μl of a RPMI1640 medium containing 0.5% FBS were seeded in the upper insert (transwell having a diameter of 8 mm, product of Corning) while 800 μl of a RPMI1640 medium with or without hHGF or HiP-8, or an anti-human HGF rabbit polyclonal antibody and supplemented with 0.5% FBS was added to the bottom chamber. The cells were cultured for 16 hours and fixed with 4% PFA solution in PBS. The cells attached to the bottom surface of the membrane were stained with 0.4% crystal violet solution in 20% methanol and the number of cells was counted.

[3] = tested on: PC-9 cells; assay: Gefitinib resistance test; type: cell-based, human; conditions: gefitinib, HGF 20 ng/mL, 72 hours
Procedure: The resistance to gefitinib, an anticancer agent, was tested by seeding human lung cancer cells, PC-9 cells, on a 24-well plate and cultured for 24 hours on a RPMI medium containing 10% fetal bovine serum. The number of living cells was counted after non-addition or addition of gefitinib ([…]), HGF (20 ng/mL), or HiP8-PEG11 (1-1000 nM) and culturing for 72 hours.

[4] = molecular target: T2, tcHGF (Homo sapiens, UniProt P14210); assay: Tissue staining of frozen human lung cancer tissue; conditions: thirty six lung cancer tissue sections
T2 construct: subjected to extracellular processing (cleavage) by a specific protease and is to be converted into two-chain HGF; tissue US Biomax FLU401B; host or cells: frozen human lung cancer tissue sections
T2 sequence (P14210 32-494 limits assumed): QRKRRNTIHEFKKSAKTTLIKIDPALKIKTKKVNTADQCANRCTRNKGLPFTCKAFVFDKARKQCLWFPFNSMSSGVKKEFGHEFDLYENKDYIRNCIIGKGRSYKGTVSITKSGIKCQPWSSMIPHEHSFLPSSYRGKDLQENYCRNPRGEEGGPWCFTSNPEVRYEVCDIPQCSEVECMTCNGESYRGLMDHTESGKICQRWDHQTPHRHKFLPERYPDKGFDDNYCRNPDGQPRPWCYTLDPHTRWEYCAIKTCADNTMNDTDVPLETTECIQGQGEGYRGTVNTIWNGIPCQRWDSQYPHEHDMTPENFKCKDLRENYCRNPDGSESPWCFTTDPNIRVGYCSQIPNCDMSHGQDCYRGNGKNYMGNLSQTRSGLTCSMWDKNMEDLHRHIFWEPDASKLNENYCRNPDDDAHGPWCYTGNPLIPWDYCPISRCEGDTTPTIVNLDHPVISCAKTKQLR
T2 sequence (P14210 495-728 limits assumed): as the sequence (P14210 495-728) above
Procedure: A frozen human lung cancer tissue array FLU401B was obtained from US Biomax. A tissue section was fixed in a 4% (w/v) paraformaldehyde PBS solution at room temperature for 30 minutes, treated for one hour with a 3% (w/v) bovine serum-derived albumin (BSA) PBS solution to prevent non-specific adsorption of a probe, and incubated overnight at 4° C. with HiP-8-PEG11-biotin, a primary antibody against human HGF (clone: t5A11, Umitsu M, Sakai K, Ogasawara S, Kaneko M, Asaki R, Tamura-Kawakami K, Kato Y, Matsumoto K, Takagi J. Probing conformational and functional states of human hepatocyte growth factor by a panel of monoclonal antibodies. Scientific Reports, 6: 33149, 2016), or phosphorylated MET (phospho Y1230/1234/Y1235, product of Abeam) diluted with Can Get Signal (registered trademark) antibody staining (product of Toyobo).
After washing three times with PBS, the probes were detected with streptavidin or goat anti-mouse IgG labeled with Alexa Fluor 488 and goat anti-rabbit IgG (product of Thermo Fisher Scientific) labeled with Alexa Fluor 594.
For semi-quantitative detection of antibody staining, stained region and mixed region in each tissue was quantitatively determined by ImageJ software (product of NIH). […]

[5] = molecular target: T3, HGF (Homo sapiens, UniProt P14210); assay: Binding of cyclic peptides to immobilized HGF by SPR (Biacore T200); conditions: immobilized biotinylated HGF, single cycle kinetics
T3 construct: the full-length human HGF cDNA was cloned into pEHX1.1 plasmid; made in house; host or cells: Chinese hamster ovary (CHO) cells
Procedure: Binding of the cyclic peptides to immobilized HGF was measured using surface plasmon resonance (SPR) with Biacore T200 (product of GE Healthcare). Specifically, 2000 resonance units (RU) of biotinylated HGF was immobilized onto a CAP sensor chip by using a biotin capture kit (product of GE Healthcare).
Binding of the cyclic peptides was tested by injecting varying concentrations of the cyclic peptides into an HBS EP+buffer (10 mM HEPES (pH 7.4), 150 mM NaCl, 3 mM EDTA, and 0.05% (v/v) Surfactant P20) containing 0.1% DMSO at a flow rate of 30 μl/min. Binding of the cyclic peptides to HGF was analyzed by single cycle kinetics analysis.

[6] = tested on: phosphorylation of MET, Gab1, Akt, and Erk1/2; assay: Western blotting analysis of HGF-induced phosphorylation in EHMES-1 cells; type: cell-based; conditions: 2 nM HGF, HiP-8 10, 100, 1,000, 10,000 nM
Procedure: EHMES-1 cells were cultured on a 6-well plate until they were from 80 to 90% confluent. After starvation for 6 hours, the cells were stimulated for 10 minutes with 2 nM hHGF in a culture medium in the absence of a cyclic peptide or in the presence of 10, 100, 1,000, or 10,000 nM cyclic peptide. The resulting cells were washed with PBS and lysed with 200 μl of lysis buffer 17 (product of R&D Systems) containing 1× Complete protease inhibitor cocktail (product of Roche). The protein concentration was measured by BCA assay (product of Thermo Fisher Scientific), and the protein was provided for 10% polyacrylamide gel SDS-PAGE. The protein was transferred onto a PVDF (polyvinylidene difluoride) membrane (Bio-Rad) and detected using a Can Get Signal (registered trademark) solution 1 containing a primary antibody (diluted at 1:2000), that is, MET (CST, 25H2), phospho-MET (Tyr1234/1235) (CST, D26), Akt (CST, 11E7), phospho-Akt (Ser473) (CST, D9E), Erk1/2 (CST, 137F5), phospho-Erk1/2 (Thr202/Tyr204) (CST, D13.14.4E), Gab1 (CST) and phospho-Gab1 (Tyr627) (CST, C32H2), and Can Get Signal (registered trademark) solution 2 (product of Toyobo) containing a horseradish peroxidase-bound secondary antibody (product of Dako) (diluted at 1:5000). […]

[7] = molecular target: T3, HGF; assay: Change in conformational structure of HGF: trypsin digestion; conditions: HGF 2.5 μM ± HiP-8 10 μM, room temperature, 30 minutes
Procedure: System of HGF (2.5 μM) with or without HiP-8 were digested with trypsin at room temperature for 30 minutes. A trypsin:HGF molar ratio was set at 0:1, 0.004:1, 0.012:1, 0.037:1, 0.11:1, 0.33:1, and 1:1. The product obtained by digestion was analyzed on from 5 to 20% SDS-PAGE under reducing conditions and stained with Coomassie Blue.
Target sequence in this assay (P14210 32-489 isoform P14210-3): as the sequence (P14210 32-489 isoform P14210-3) above
Target sequence in this assay (P14210 495-728): as the sequence (P14210 495-728) above

[8] = molecular target: T3, HGF; assay: Binding of HGF to immobilized HiP8-PEG11 by SPR (Biacore 3000); conditions: immobilized HiP-8-PEG11, read-out: KD of HGF binding to immobilized peptide
Procedure: (§1) Binding of HGF and HGF fragments to immobilized HiP8-PEG11 was measured by surface plasmon resonance (SPR) with Biacore 3000 (product of Ge Flealthcare). Hip8-PEG11-biotin was supported on the surface of a streptavidin-coated chip at 10 RU (resonance unit). The test was performed by injecting HGF and HGF fragments with varying concentrations into 10 mM TBS (pH 7.4), 150 mM NaCl, and 0.05% Tween 20 (v/v) at a flow rate of 30 μl/min. Binding affinity was analyzed from a fitting model of steady-state affinity by multi-cycle kinetics analysis.
(§2) HGF was an active type HGF without substitution of the cleavage site of wild type HGF (KQLR/V) with the recognition sequence of Factor Xa (IEGR/V) and domain-deficiency and was a two-chain HGF capable of activating MET. tcHGF (Xa) was an HGF with substitution of the cleavage site of the HGF with the recognition sequence of Factor Xa (IEGR/V) and was cleaved into two chains by the Factor Xa treatment. It was also a two-chain HGF capable of activating MET. On the other hand, scHGF (Xa) was obtained by substituting the cleavage site of HGF with the recognition sequence of Factor Xa (IEGR/V).

[9] = tested on: MET activation/tyrosine phosphorylation; assay: MET activation inhibition test in mice; type: in vivo; conditions: human HGF knocked-in SCID mice with PC-9 tumors, intravenous injection
Description: PC-9 human non-small cell lung cancer cells, which were to express human HGF, were transplanted subcutaneously to human HGF knocked-in SCID mice at 3×10^6 cells/site. On day 28 after transplantation, HiP8-PEG11 in PBS/phosphate buffered physiological saline solution was intravenously injected. The tumor tissue was removed, and MET activated/tyrosine-phosphorylated and a total MET amount in the tumor tissue were quantitatively determined by western blotting with the tissue extract. It is to be noted that the tumor tissue was homogenized in a RIPA buffer solution. Each sample containing […] of the protein was provided for SDS-PAGE and western blotting. Tyrosine-phosphorylated MET and a total MET amount were detected by western blotting.

[10] = molecular target: T4, scHGF(Xa) (Homo sapiens, UniProt P14210, K491I/L493G/Q492E); assay: Binding of scHGF(Xa) to immobilized HiP8-PEG11 by SPR (Biacore 3000); conditions: immobilized HiP-8-PEG11
T4 construct: The full-length HGF protein and N-terminally truncated HGF protein; hexahistidine (with TEV site) (C, cleaved yes); made in house; host or cells: Expi293F cells
T4 sequence (P14210 32-723 isoform P14210-3 K486I/Q487E/L488G): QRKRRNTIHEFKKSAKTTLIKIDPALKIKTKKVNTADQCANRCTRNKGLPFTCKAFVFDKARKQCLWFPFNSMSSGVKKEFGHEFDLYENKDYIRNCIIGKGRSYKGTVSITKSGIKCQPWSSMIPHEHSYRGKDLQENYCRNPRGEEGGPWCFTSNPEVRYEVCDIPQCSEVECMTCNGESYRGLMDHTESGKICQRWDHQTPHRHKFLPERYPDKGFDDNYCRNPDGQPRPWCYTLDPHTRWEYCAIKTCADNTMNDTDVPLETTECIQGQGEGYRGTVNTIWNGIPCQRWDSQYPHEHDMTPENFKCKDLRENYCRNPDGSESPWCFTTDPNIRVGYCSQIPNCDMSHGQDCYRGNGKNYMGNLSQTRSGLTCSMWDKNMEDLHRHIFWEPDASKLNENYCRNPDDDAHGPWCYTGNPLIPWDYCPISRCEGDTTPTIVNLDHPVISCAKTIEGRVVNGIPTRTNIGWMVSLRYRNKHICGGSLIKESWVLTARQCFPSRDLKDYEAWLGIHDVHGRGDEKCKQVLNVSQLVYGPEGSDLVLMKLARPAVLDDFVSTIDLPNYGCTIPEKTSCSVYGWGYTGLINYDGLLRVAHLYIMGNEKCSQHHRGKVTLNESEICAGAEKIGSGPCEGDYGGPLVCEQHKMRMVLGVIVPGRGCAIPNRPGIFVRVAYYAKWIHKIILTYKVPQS
Procedure: as §1, §2

| SMILES | mode of inhibition of HGF-MET interaction [1] | B16-F10 melanoma migration induced by HGF [2] | effect on gefitinib resistance induced by HGF [3] | correlation of staining intensity of tcHGF detected by peptide with pMET [4] | kon ([5]; read-out: Ka (association rate)) | koff ([5]; read-out: Kd (dissociation rate)) | phosphorylation of MET, Gab1, Akt, and Erk1/2 induced by HGF [6] | structural change of HGF (trypsin proteolysis of SP chain) [7] | Kd [8] | MET activation/tyrosine phosphorylation in tumor tissue [9] | binding of scHGF(Xa) to immobilized peptide [10] |
| --- | --- | --- | --- | --- | --- | --- | --- | --- | --- | --- | --- |
| CC(C)C[C@@H]1NC(=O)[C@@H]2CCCN2C(=O)[C@@H](Cc2c[nH]c3ccccc23)NC(=O)CSC[C@@H](C(=O)NCC(N)=O)NC(=O)[C@H](CCCNC(=N)N)NC(=O)[C@H](CCCCN)NC(=O)[C@H](CO)NC(=O)[C@H](Cc2ccc(O)cc2)NC(=O)[C@H](Cc2c[nH]c3ccccc23)NC(=O)[C@H](Cc2c[nH]c3ccccc23)NC(=O)[C@H](CCCCN)NC(=O)[C@H](CO)NC1=O [HiP-8, PLSKWWYSKR] | uncompetitive inhibition of HGF-MET interaction | inhibited B16-F10 melanoma migration induced by HGF at a level equivalent to that of an anti-HGF antibody | inhibited gefitinib resistance induced by HGF | strong correlation with the staining intensity of pMET | 1.1e+06 M⁻¹ s⁻¹ | 0.0004 s⁻¹ | inhibited phosphorylation of MET, Gab1, Akt, and Erk1/2 | induced a change in the conformation of HGF |  |  |  |
| CC(C)C[C@@H]1NC(=O)[C@@H]2CCCN2C(=O)[C@H](Cc2c[nH]c3ccccc23)NC(=O)CSC[C@@H](C(=O)NCCC(=O)NCCOCCOCCOCCOCCOCCOCCOCCOCCOCCOCCOCCOCCC(N)=O)NC(=O)[C@H](CCCNC(=N)N)NC(=O)[C@H](CCCCN)NC(=O)[C@H](CO)NC(=O)[C@H](Cc2ccc(O)cc2)NC(=O)[C@H](Cc2c[nH]c3ccccc23)NC(=O)[C@H](Cc2c[nH]c3ccccc23)NC(=O)[C@H](CCCCN)NC(=O)[C@H](CO)NC1=O [HiP-8-PEG11] ({CH2CO}-WPLSKWWYSKRC[βAla][PEG12]-NH2; thioether N-12) |  |  |  |  |  |  |  |  | 0.9 nM | dose-dependent inhibition of MET activation/tyrosine phosphorylation | very limited portion of the scHGF(Xa) bound |
